From the METLIN SMRT retention time set (Domingo-Almenara et al. 2019)

Assay: gradient 5% acetonitrile 3 min, to 50% in 2 min, to 85% in 15 min, held 3 min, 100 µL/min
Settings: column: Zorbax Extend-C18 2.1 x 50 mm; eluents: water / acetonitrile, 0.1% formic acid
In short: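 Using water and acetonitrile that each contained 0.1% formic acid, mixtures of ~100 pure standards were separated at 100 μL/min on a Zorbax Extend-C18 column (2.1 × 50 mm, 1.8 μm). The HPLC fed a quadrupole time-of-flight mass spectrometer working in positive and negative ionization mode, with dead and dwell volumes of 40 μL and 900 μL. Data were acquired over 3 months. Retention time was read from computationally picked adduct peaks after manual inspection of each.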

RP-LC retention time	SMILES
974 s	CC(=O)Oc1ccccc1C1=NN(C(C)=O)C(c2ccccc2Cl)O1 (stereo unspecified)
630 s	O=C(CC1CCN(C(=O)Nc2cccc(Cl)c2)CC1)N1CCN(c2ccccn2)CC1
734 s	COc1cc(NC(=O)C2CCCN(c3nnc4ccc(Cl)cn34)C2)cc(OC)c1OC (stereo unspecified)
896 s	COc1ccc2nc(C(=O)NCc3cccc(Br)c3)cn2n1
713 s	Cc1ccc(-c2cc3c(=O)n(Cc4noc(CN5CCC(C)CC5)n4)ccn3n2)cc1
764 s	COc1ccc(N2C=C(C(=O)N3CCCC3)S(=O)(=O)c3ccccc32)cc1
726 s	CCOc1ccc(-c2cc(C(=O)N3CCN(c4ccccn4)CC3)c3ccccc3n2)cc1
598 s	CC(=O)Nc1ccc(C(=O)NC2CCN(c3cc(N4CCCC4)cnn3)C2)cc1 (stereo unspecified)
1070 s	COC(=O)c1ccc2c(=O)n(-c3ccc(OC)c(OC)c3)c(N3CCC(C)CC3)nc2c1
1140 s	CCc1nc2cc(-c3noc(/C=C/c4ccc(OC)c(OC)c4)n3)ccc2o1
1320 s	Cc1ccccc1-c1nc(-c2ccc(N3CCSCC3)nc2)no1
828 s	CC1(C(N)=O)CC(c2ccccc2)=NO1 (stereo unspecified)
580 s	Cc1nccn1CCNC(=O)C(=O)Nc1ccc(OC(F)(F)F)cc1
847 s	CC(C)Cn1nc2n(c1=O)CCN(S(=O)(=O)c1ccccc1C(F)(F)F)CC2
833 s	CCOc1ccc2nc(Nc3ncc4c(n3)CC(c3ccc(F)cc3)CC4=O)nc(C)c2c1 (stereo unspecified)
688 s	O=C(C1CC1)N1CCCN(c2ccc([N+](=O)[O-])cc2)CC1
833 s	CC(=O)Nc1nonc1-c1nnc(SCC(=O)Nc2nc(-c3ccccc3)cs2)n1C
718 s	Cc1cc(=O)c2cc(C(=O)c3ccccc3)ccc2[nH]1
915 s	Cc1ccc(C)c(Cn2nc3ccc(S(=O)(=O)N4CCCC4)cn3c2=O)c1
764 s	O=C1CCCc2cc(S(=O)(=O)NCc3cccc(Br)c3)ccc2N1
966 s	COc1ccc(-c2cc(N3CCC(NC(=O)c4ccc(Br)cc4)C3)n[nH]2)cc1 (stereo unspecified)
782 s	O=C(O)c1ccccc1C(=O)Nc1ccccc1[N+](=O)[O-]
830 s	COc1ccc(Cc2nc(-c3cccc(-c4ccn[nH]4)c3)no2)cc1OC

RP-LC retention time	SMILES
689 s	O=C(Nc1ccc(F)cc1)C1CCCN(c2nnc3ccc(Cl)cn23)C1 (stereo unspecified)
585 s	COCCNC(=O)c1nc2cccnc2n(C)c1=O
756 s	COc1ccc2c(ccn2CC(=O)N[C@@H](CC(C)C)C(=O)O)c1
622 s	N#CCSC1=NS(=O)(=O)c2cc(F)ccc2N1
846 s	COc1ccc(C2CC(=O)c3c([nH]c(C(=O)OCC4CCCO4)c3C)C2)cc1OC (stereo unspecified)
1140 s	COc1cc(OC)c(NC(=O)c2ncoc2-c2ccc(OC)c(OC)c2)cc1Cl
635 s	O=C(c1cnc2n(c1=O)CCS2)N1CCN(c2ccc([N+](=O)[O-])cc2)CC1
902 s	Cc1cc2c(cc1S(=O)(=O)N1CCCC1C(=O)Nc1ccc(C(C)C)cc1)OCC(=O)N2 (stereo unspecified)
693 s	Cc1onc(-c2ccccc2Cl)c1C(=O)N1CC2CC1C(=O)O2 (stereo unspecified)
650 s	COc1ccc(OC)c(NC(=O)COc2cc(C)nc(N3CCCC3)n2)c1
1020 s	O=C(C1=NN(CCc2ccccc2)c2ccccc2S1(=O)=O)N1CCCCCC1
1200 s	CCCN(c1cccc(Cl)c1)c1nc(C(=O)OCC)nc2ccccc12
804 s	Cc1ccn(C(=O)c2ccc(NC(=O)CC(C)C)cc2)n1
789 s	COc1ccccc1C(=O)NC1CCN(c2ccccc2)C1=O (stereo unspecified)
1070 s	COc1ccc2c(c1)c1ncn(Cc3nc(C4CC4)no3)c(=O)c1n2Cc1c(F)cccc1Cl
895 s	CN(CC1(C)CCOCC1)S(=O)(=O)c1cccc(F)c1
588 s	c1ccc(-c2nc(C3CC3)no2)c(OC2CCNC2)c1 (stereo unspecified)
922 s	CCOC(=O)c1ccccc1NC(=O)CCCn1nc(-c2ccc(F)cc2)ccc1=O
594 s	CCN1CCN(c2ccc(NC(=O)C(C)(C)C)c(C(=O)O)c2)CC1
939 s	CCOc1ccc(NC(=O)Nc2nccn(-c3cccc(F)c3)c2=O)cc1
683 s	CC1=NC(C)(C)CC2CCC(O)C12 (stereo unspecified)
668 s	O=C1CN(Cc2ccc(F)cc2Cl)C2(CCCC2)CN1
782 s	O=C(CCc1nc2ccccc2n(CC(=O)Nc2ccc3c(c2)OCCO3)c1=O)NCc1ccccc1

RP-LC retention time	SMILES
848 s	COc1ccc(CNC(=O)C(C)n2sc3ccccc3c2=O)cc1OC (stereo unspecified)
1060 s	COc1ccc(OC)c(NC(=O)c2cc(S(=O)(=O)N3CCC(C)CC3)cn2C)c1
623 s	O=C(NCc1ccccc1F)c1ccc2ncnc(N3CCCC3)c2c1
577 s	O=C(Nc1ccccc1)c1cn2c(n1)CCCC2
1190 s	CCOc1cccc(-c2noc(-c3nnn(Cc4nc(-c5ccccc5OC)oc4C)c3C)n2)c1
834 s	COc1ccc(C(=O)N2CCC(COc3ccc(C(=O)NC(C)C)cc3)CC2)cc1F
553 s	CN(C)c1nccnc1OC1CCN(C(=O)c2ccncc2)C1 (stereo unspecified)
752 s	Cc1ccc2c(c1)C(=O)NC1(CCN(C(=O)c3cc(F)cc(F)c3)CC1)N2C
764 s	Cc1cc(C)n(-c2cc(N3CCCC3)ncn2)n1
704 s	Cc1ccc2c(=O)c(C(=O)N3CCCC3)cn(CC(=O)Nc3ccccc3Cl)c2n1
1060 s	COCCn1c(SCc2nc(-c3ccc4c(c3)OCO4)no2)nc2cc3c(cc2c1=O)OCO3
607 s	COc1nccc(N2CCC(CC(=O)NCc3cccc(OC)c3OC)CC2)n1
963 s	CCOc1ccc(-n2c(N3CCCC3)nc3cc(C(=O)OC)ccc3c2=O)cc1
840 s	COc1cccc(S(=O)(=O)N2C[C@@H]3C[C@H]2C[C@@H]3NC(=O)c2ccccc2)c1
935 s	O=C(Cc1cccs1)N1CCCC1c1nc(-c2ccc(F)cc2F)no1 (stereo unspecified)
886 s	O=C(Nc1ccc(OCc2nnc(-c3ccccc3)o2)cc1)c1n[nH]c2c1CCCC2
873 s	CC1=C(c2ccccc2)S(=O)(=O)N=C1N1CCCN(C(=O)C(C)c2ccccc2)CC1 (stereo unspecified)
850 s	O=C(N[C@H]1C[C@@H]2C[C@H]1N(C(=O)c1ccc(F)c(Cl)c1)C2)c1ccccc1
903 s	C=CCN1C(=O)COc2ccc(-c3nc(NC(=O)c4ccco4)sc3C)cc21
564 s	CC(=O)Nc1ccc(-n2cnc(C(=O)N3CCC(C(N)=O)CC3)c2)nc1
927 s	COC(=O)c1cccc(NC(=O)c2sc(-c3cn(C)c4ncccc34)nc2C)c1
977 s	CC(C)NC(=O)N1CCCC(c2cccc(C(=O)NCCC3=CCCCC3)c2)C1 (stereo unspecified)
915 s	CC#C[C@@H](CC(=O)O)c1ccc(OCc2ccc(CN3CCC4(C=Cc5ccccc54)CC3)s2)cc1

RP-LC retention time	SMILES
789 s	CCC(=O)N1CCc2cc(N3CC(C(=O)Nc4ccc(C)cc4Cl)CC3=O)ccc21 (stereo unspecified)
1180 s	CC(C)c1ccc(-c2ccnc3c(C(=O)NCCCc4ccco4)cnn23)cc1
644 s	CC(C)NC(=O)c1cc(C2CC2)[nH]n1
625 s	CCCS(=O)(=O)N1CC(c2nnc(-c3ccncc3)o2)C2(CCOCC2)C1 (stereo unspecified)
589 s	COc1ccc(-c2cc(C(=O)N3CCCC3)c(C)n2C)cc1
634 s	Cn1c(N2CCCC(C(=O)Nc3nccs3)C2)cc(=O)n(C)c1=O (stereo unspecified)
682 s	CCS(=O)(=O)N1CCCc2cc(C(=O)NCCOC)ccc21
962 s	Cc1nn(C(C)C(=O)NC2CCC(C)CC2)c(=O)c2nn(-c3ccccc3)c(C)c12 (stereo unspecified)
941 s	Cc1oc(-c2ccc(NC(=O)Cc3ccc(Cl)cc3)cc2)nc1Cn1cccn1
616 s	Cc1c(C(=O)N2CCOCC2)cc(-c2ccccc2)n1C
929 s	O=C(COc1ccccc1)OCc1nc2ccccc2s1
805 s	O=C(C1CCCN(c2nc3ccccc3n3cccc23)C1)N1CCN(c2ccc(F)cc2)CC1 (stereo unspecified)
683 s	Cc1ccc(CN2CC(c3ncc(C)n3Cc3cccnc3)C2)s1
993 s	Cc1ccccc1-c1noc(C2CCCN2C(=O)Nc2ccc(F)cc2F)n1 (stereo unspecified)
614 s	O=C(NC1CCCCC1)C1CCN(c2cn[nH]c(=O)c2)C1 (stereo unspecified)
918 s	CCc1ccccc1N1C=C(C(=O)OC)S(=O)(=O)c2ccccc21
786 s	Cc1cc(N(CCO)Cc2ccccc2)n2nc(-c3ccccc3C)nc2n1
799 s	O=C(NC1CCc2ccccc21)c1nnn(-c2ccc(F)cc2)c1-c1ccncc1 (stereo unspecified)
776 s	CCCNC(=O)Nc1ccc(NC(=O)N2CCCC(C(=O)NCC3CCCCC3)C2)cc1 (stereo unspecified)
596 s	CCN(Cc1ccccc1)C(=O)Cn1c(N)nc(C)cc1=O
647 s	COc1ccc(NC(=O)Nc2nc(CCC(=O)O)cs2)cc1
655 s	COc1cc(C(=O)N2CCC3(CC2)NC(=O)c2cc(F)ccc2N3C)cc(OC)c1OC
